Tests used:
[1] = target: Mitogen-activated protein kinase kinase kinase kinase 4 (Homo sapiens) (UniProt O95819); conditions: Compound concentration 1000.0 nM
[2] = target: 5-hydroxytryptamine receptor 1D (Homo sapiens) (UniProt P28221); conditions: Compound concentration 10.0 uM
[3] = target: Serine/threonine-protein kinase ICK (Homo sapiens) (UniProt Q9UPZ9); conditions: Compound concentration 1000.0 nM
[4] = target: Serine/threonine-protein kinase Nek10 (Homo sapiens) (UniProt Q6ZWH5); conditions: Compound concentration 1000.0 nM
[5] = target: Mitogen-activated protein kinase kinase kinase 12 (Homo sapiens) (UniProt Q12852); conditions: Compound concentration 1000.0 nM
[6] = target: Fibroblast growth factor receptor 3 (Homo sapiens) (UniProt P22607); conditions: Compound concentration 1000.0 nM
[7] = target: Leukocyte tyrosine kinase receptor (Homo sapiens) (UniProt P29376); conditions: Compound concentration 1000.0 nM
[8] = target: Protein-tyrosine kinase 2-beta (Homo sapiens) (UniProt Q14289); conditions: Compound concentration 1000.0 nM
[9] = target: Mitogen-activated protein kinase 3 (Homo sapiens) (UniProt P27361); conditions: Compound concentration 1000.0 nM
[10] = target: Calcium/calmodulin-dependent protein kinase type II subunit beta (Homo sapiens) (UniProt Q13554); conditions: Compound concentration 1000.0 nM
[11] = target: Tyrosine-protein kinase FRK (Homo sapiens) (UniProt P42685); conditions: Compound concentration 1000.0 nM
[12] = target: Serine/threonine-protein kinase STK11 (Homo sapiens) (UniProt Q15831); conditions: Compound concentration 1000.0 nM
[13] = target: Mitogen-activated protein kinase kinase kinase 14 (Homo sapiens) (UniProt Q99558); conditions: Compound concentration 1000.0 nM
[14] = target: Phosphatidylinositol 4-phosphate 5-kinase type-1 gamma (Homo sapiens) (UniProt O60331); conditions: Compound concentration 1000.0 nM
[15] = target: Non-receptor tyrosine-protein kinase TYK2 (Homo sapiens) (UniProt P29597); conditions: Compound concentration 1000.0 nM
[16] = target: Homeodomain-interacting protein kinase 2 (Homo sapiens) (UniProt Q9H2X6); conditions: Compound concentration 1000.0 nM
[17] = target: RAC-alpha serine/threonine-protein kinase (Homo sapiens) (UniProt P31749); conditions: Compound concentration 1000.0 nM
[18] = system: ALK tyrosine kinase receptor (Homo sapiens), Q9UM73 [C1156Y]; conditions: Compound concentration 1000.0 nM
[19] = target: SRSF protein kinase 3 (Homo sapiens) (UniProt Q9UPE1); conditions: Compound concentration 1000.0 nM
[20] = target: Beta-1 adrenergic receptor (Homo sapiens) (UniProt P08588); conditions: Compound concentration 10.0 uM
[21] = target: Ephrin type-A receptor 3 (Homo sapiens) (UniProt P29320); conditions: Compound concentration 1000.0 nM
[22] = target: Mitogen-activated protein kinase kinase kinase 7 (Homo sapiens) (UniProt O43318); conditions: Compound concentration 1000.0 nM
[23] = target: Cyclin-dependent kinase 5 (Homo sapiens) (UniProt Q00535); conditions: Compound concentration 1000.0 nM
[24] = target: Tyrosine-protein kinase receptor TYRO3 (Homo sapiens) (UniProt Q06418); conditions: Compound concentration 1000.0 nM
[25] = system: Tyrosine-protein kinase ABL1 (Homo sapiens), P00519 [F317I]; conditions: Compound concentration 1000.0 nM
[26] = target: Cyclin-dependent kinase-like 1 (Homo sapiens) (UniProt Q00532); conditions: Compound concentration 1000.0 nM
[27] = target: 5-hydroxytryptamine receptor 1B (Homo sapiens) (UniProt P28222); conditions: Compound concentration 10.0 uM
[28] = target: Tyrosine-protein kinase ABL1 (Homo sapiens) (UniProt P00519); conditions: Compound concentration 1000.0 nM
[29] = target: Insulin receptor-related protein (Homo sapiens) (UniProt P14616); conditions: Compound concentration 1000.0 nM
[30] = target: Dual specificity testis-specific protein kinase 1 (Homo sapiens) (UniProt Q15569); conditions: Compound concentration 1000.0 nM
[31] = target: Serine/threonine-protein kinase SIK3 (Homo sapiens) (UniProt Q9Y2K2); conditions: Compound concentration 1000.0 nM
[32] = system: Tyrosine-protein kinase ABL1 (Homo sapiens), P00519 [T315I]; conditions: Compound concentration 1000.0 nM
[33] = target: Dual specificity protein kinase CLK3 (Homo sapiens) (UniProt P49761); conditions: Compound concentration 1000.0 nM
[34] = target: GABA-A receptor; anion channel (Rattus norvegicus) (UniProt O09028+P15431+P18506+P18508+P19969+P20236+P23574+P23576+P28471+P28473+P30191+P62813+P63079+P63138+Q91ZM7+Q9ES14); conditions: Compound concentration 10.0 uM
[35] = target: Macrophage-stimulating protein receptor (Homo sapiens) (UniProt Q04912); conditions: Compound concentration 1000.0 nM
[36] = target: Myosin-IIIb (Homo sapiens) (UniProt Q8WXR4); conditions: Compound concentration 1000.0 nM
[37] = target: Serine/threonine-protein kinase MRCK alpha (Homo sapiens) (UniProt Q5VT25); conditions: Compound concentration 1000.0 nM
[38] = target: Homeodomain-interacting protein kinase 4 (Homo sapiens) (UniProt Q8NE63); conditions: Compound concentration 1000.0 nM
Rattus norvegicus = organism: Rattus norvegicus; conditions: Compound concentration 10.0 uM
[39] = target: Ribosomal protein S6 kinase alpha-4 (Homo sapiens) (UniProt O75676); conditions: Compound concentration 1000.0 nM
[40] = system: Epidermal growth factor receptor (Homo sapiens), P00533 [L858R,T790M]; conditions: Compound concentration 1000.0 nM
[41] = target: Cyclin-dependent kinase 15 (Homo sapiens) (UniProt Q96Q40); conditions: Compound concentration 1000.0 nM
[42] = target: Myosin light chain kinase (Homo sapiens) (UniProt Q32MK0); conditions: Compound concentration 1000.0 nM
[43] = target: Proto-oncogene tyrosine-protein kinase receptor Ret (Homo sapiens) (UniProt P07949); conditions: Compound concentration 1000.0 nM
[44] = target: D(1B) dopamine receptor (Homo sapiens) (UniProt P21918); conditions: Compound concentration 10.0 uM

Dual specificity protein kinase CLK3 (Homo sapiens), sequence (P49761 whole entry, looked up): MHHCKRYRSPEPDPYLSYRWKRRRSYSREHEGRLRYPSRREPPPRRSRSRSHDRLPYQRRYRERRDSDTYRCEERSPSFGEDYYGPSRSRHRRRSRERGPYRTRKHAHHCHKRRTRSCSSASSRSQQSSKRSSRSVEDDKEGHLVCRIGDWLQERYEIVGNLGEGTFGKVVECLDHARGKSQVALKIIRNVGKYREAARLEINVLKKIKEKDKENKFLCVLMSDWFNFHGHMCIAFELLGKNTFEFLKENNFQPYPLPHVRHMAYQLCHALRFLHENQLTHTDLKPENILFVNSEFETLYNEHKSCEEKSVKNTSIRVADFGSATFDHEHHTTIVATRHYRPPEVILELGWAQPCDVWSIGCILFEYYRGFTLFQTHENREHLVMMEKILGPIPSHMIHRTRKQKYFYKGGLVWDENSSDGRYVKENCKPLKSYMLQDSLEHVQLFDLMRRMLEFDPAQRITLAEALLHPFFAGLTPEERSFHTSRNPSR
Serine/threonine-protein kinase STK11 (Homo sapiens), sequence (Q15831 whole entry): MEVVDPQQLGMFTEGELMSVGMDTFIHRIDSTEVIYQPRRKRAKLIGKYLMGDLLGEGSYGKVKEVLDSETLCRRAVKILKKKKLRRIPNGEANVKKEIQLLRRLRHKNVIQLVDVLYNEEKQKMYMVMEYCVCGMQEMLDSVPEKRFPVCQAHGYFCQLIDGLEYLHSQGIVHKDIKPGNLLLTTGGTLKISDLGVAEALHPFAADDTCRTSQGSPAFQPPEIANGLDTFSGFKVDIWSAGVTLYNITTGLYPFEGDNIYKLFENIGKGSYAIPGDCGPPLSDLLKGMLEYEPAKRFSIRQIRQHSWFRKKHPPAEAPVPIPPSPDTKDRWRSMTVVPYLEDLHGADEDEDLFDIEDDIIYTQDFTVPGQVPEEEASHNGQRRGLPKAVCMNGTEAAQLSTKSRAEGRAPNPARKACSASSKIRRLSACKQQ
ALK tyrosine kinase receptor (Homo sapiens), Q9UM73 [C1156Y], sequence (Q9UM73 whole entry C1156Y, looked up): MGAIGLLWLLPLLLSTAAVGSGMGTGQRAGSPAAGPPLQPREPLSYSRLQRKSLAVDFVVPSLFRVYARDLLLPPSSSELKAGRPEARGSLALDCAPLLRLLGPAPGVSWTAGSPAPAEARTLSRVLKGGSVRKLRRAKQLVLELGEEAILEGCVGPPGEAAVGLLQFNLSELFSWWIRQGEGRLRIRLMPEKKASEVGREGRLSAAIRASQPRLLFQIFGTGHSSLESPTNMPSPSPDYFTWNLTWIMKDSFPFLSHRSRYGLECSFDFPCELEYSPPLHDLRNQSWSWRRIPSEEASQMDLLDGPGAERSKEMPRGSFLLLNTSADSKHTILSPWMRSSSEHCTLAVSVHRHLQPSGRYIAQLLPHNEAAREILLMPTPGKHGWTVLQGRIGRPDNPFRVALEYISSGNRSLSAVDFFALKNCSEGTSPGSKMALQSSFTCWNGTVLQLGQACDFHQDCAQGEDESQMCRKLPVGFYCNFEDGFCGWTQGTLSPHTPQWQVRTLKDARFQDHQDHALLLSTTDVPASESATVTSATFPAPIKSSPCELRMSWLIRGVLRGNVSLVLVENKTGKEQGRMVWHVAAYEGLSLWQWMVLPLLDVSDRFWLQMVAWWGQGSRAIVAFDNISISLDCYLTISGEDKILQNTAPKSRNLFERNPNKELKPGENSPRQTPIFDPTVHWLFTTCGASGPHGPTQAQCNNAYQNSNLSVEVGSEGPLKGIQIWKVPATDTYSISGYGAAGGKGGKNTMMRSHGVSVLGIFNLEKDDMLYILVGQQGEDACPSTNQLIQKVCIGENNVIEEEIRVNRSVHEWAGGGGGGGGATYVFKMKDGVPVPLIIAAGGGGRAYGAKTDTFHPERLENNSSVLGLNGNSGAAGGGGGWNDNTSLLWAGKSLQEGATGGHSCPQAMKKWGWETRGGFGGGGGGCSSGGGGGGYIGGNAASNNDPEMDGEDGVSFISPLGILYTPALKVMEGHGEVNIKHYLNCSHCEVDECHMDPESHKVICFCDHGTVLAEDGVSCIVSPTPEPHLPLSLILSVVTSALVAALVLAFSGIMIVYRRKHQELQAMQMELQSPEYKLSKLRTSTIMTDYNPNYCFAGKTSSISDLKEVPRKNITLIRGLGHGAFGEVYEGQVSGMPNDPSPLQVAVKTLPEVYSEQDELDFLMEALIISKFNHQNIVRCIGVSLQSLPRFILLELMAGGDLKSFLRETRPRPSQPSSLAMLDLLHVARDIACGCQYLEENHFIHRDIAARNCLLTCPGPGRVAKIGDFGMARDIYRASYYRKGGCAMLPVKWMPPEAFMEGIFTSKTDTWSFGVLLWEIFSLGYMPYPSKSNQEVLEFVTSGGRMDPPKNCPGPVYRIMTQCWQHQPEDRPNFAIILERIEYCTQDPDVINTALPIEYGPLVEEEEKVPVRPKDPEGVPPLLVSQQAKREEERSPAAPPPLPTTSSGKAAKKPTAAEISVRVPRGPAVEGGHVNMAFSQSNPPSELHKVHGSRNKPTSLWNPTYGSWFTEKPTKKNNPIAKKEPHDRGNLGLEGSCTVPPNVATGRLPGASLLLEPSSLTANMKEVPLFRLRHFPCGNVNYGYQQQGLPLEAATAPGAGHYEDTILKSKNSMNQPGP
Homeodomain-interacting protein kinase 4 (Homo sapiens), sequence (Q8NE63 whole entry): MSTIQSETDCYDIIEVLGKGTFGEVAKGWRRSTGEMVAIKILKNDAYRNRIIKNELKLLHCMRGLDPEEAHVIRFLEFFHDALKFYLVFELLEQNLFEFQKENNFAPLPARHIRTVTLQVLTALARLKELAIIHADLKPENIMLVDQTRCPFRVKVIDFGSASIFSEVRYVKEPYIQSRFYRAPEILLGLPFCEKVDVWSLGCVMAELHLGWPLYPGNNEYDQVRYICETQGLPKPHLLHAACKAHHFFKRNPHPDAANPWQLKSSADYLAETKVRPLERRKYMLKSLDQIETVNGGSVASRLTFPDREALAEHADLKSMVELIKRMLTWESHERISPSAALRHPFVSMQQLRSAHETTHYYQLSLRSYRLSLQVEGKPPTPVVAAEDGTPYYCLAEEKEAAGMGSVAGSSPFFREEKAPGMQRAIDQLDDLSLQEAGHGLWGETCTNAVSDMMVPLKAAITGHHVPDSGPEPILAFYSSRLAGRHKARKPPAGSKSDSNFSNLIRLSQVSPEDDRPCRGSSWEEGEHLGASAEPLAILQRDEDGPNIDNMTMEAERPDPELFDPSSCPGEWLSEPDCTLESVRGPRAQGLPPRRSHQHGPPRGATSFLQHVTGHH
Phosphatidylinositol 4-phosphate 5-kinase type-1 gamma (Homo sapiens), sequence (O60331 whole entry): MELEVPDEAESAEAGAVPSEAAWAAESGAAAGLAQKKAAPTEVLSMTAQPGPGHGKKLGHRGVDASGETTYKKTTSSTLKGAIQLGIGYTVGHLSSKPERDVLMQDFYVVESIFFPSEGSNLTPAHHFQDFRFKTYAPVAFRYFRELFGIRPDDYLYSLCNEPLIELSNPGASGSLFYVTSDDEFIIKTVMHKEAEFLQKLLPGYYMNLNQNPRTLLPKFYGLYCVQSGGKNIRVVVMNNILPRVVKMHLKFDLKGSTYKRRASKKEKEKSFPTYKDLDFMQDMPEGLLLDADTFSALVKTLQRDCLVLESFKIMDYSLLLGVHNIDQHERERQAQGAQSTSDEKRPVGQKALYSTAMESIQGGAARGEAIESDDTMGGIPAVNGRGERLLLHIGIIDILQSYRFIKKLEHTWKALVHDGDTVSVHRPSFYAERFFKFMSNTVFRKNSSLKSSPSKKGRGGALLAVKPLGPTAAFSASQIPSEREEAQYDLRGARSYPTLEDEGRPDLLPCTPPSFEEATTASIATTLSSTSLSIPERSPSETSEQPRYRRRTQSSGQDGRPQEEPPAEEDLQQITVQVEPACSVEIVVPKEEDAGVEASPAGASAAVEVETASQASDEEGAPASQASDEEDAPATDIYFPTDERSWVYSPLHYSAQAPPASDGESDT
Leukocyte tyrosine kinase receptor (Homo sapiens), sequence (P29376 whole entry): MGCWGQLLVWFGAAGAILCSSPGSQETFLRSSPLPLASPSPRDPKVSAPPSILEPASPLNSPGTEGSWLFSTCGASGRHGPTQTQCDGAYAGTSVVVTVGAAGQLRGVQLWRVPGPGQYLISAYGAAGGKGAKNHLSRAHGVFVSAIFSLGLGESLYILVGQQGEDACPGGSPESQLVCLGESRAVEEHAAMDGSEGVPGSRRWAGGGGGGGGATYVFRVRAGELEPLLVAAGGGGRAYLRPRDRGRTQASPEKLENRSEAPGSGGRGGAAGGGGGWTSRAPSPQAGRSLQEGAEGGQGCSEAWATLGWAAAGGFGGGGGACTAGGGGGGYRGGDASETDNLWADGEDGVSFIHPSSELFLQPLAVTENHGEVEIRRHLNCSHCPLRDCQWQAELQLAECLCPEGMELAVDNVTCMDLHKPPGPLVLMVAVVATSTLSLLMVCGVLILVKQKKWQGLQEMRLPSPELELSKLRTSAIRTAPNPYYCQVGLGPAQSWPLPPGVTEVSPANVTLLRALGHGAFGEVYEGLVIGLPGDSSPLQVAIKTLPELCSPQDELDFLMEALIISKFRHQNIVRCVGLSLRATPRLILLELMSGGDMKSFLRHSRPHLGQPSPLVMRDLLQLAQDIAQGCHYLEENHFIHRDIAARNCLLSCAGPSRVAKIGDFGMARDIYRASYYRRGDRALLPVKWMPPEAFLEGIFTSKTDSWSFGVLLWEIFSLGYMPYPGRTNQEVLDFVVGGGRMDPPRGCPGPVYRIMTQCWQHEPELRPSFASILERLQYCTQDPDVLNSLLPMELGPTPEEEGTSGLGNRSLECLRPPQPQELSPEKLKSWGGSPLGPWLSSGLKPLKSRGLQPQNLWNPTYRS
Mitogen-activated protein kinase 3 (Homo sapiens), sequence (P27361 whole entry): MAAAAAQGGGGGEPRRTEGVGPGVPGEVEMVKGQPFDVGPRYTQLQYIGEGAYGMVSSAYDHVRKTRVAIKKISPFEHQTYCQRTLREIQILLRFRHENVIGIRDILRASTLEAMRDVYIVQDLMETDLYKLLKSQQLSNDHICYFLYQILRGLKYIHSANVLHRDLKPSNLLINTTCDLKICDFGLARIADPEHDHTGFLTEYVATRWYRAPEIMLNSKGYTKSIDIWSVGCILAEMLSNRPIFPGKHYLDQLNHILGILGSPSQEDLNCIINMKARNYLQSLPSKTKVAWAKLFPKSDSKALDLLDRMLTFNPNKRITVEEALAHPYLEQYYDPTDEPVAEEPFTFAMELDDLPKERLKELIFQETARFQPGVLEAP

SMILES: CN([C@@H]1CCc2c(CC(=O)O)c3cc(S(C)(=O)=O)ccc3n2C1)S(=O)(=O)c1ccc(F)cc1
- residual activity [1]: 100%
- inhibition [2]: 0.539%
- residual activity [3]: 93%
- residual activity [4]: 91%
- residual activity [5]: 100%
- residual activity [6]: 100%
- residual activity [7]: 100%
- residual activity [8]: 100%
- residual activity [9]: 92%
- residual activity [10]: 100%
- residual activity [11]: 100%
- residual activity [12]: 69%
- residual activity [13]: 76%
- residual activity [14]: 100%
- residual activity [15]: 100%
- residual activity [16]: 100%
- residual activity [17]: 100%
- residual activity [18]: 72%
- residual activity [19]: 100%
- inhibition [20]: -6.18%
- residual activity [21]: 97%
- residual activity [22]: 100%
- residual activity [23]: 86%
- residual activity [24]: 91%
- residual activity [25]: 75%
- residual activity [26]: 100%
- inhibition [27]: 2.6%
- residual activity [28]: 95%
- residual activity [29]: 100%
- residual activity [30]: 73%
- residual activity [31]: 89%
- residual activity [32]: 93%
- residual activity [33]: 100%
- inhibition [34]: 10.8%
- residual activity [35]: 94%
- residual activity [36]: 100%
- residual activity [37]: 100%
- residual activity [38]: 100%
- inhibition (Rattus norvegicus): 41.4%
- residual activity [39]: 100%
- residual activity [40]: 100%
- residual activity [41]: 84%
- residual activity [42]: 100%
- residual activity [43]: 100%
- inhibition [44]: -6.04%

SMILES: CN([C@@H]1CCc2c(CC(=O)O)c3ccccc3n2C1)S(=O)(=O)c1ccc(F)cc1 [MK-7246]
- residual activity [1]: 100%
- inhibition [2]: -6.38%
- residual activity [3]: 100%
- residual activity [4]: 85%
- residual activity [5]: 100%
- residual activity [6]: 100%
- residual activity [7]: 100%
- residual activity [8]: 100%
- residual activity [9]: 100%
- residual activity [10]: 99%
- residual activity [11]: 100%
- residual activity [12]: 56%
- residual activity [13]: 100%
- residual activity [14]: 100%
- residual activity [15]: 100%
- residual activity [16]: 100%
- residual activity [17]: 100%
- residual activity [18]: 98%
- residual activity [19]: 100%
- inhibition [20]: -2.68%
- residual activity [21]: 95%
- residual activity [22]: 100%
- residual activity [23]: 100%
- residual activity [24]: 72%
- residual activity [25]: 79%
- residual activity [26]: 100%
- inhibition [27]: 35.6%
- residual activity [28]: 100%
- residual activity [29]: 100%
- residual activity [30]: 91%
- residual activity [31]: 98%
- residual activity [32]: 98%
- residual activity [33]: 97%
- inhibition [34]: 22.4%
- residual activity [35]: 93%
- residual activity [36]: 100%
- residual activity [37]: 100%
- residual activity [38]: 100%
- inhibition (Rattus norvegicus): 54%
- residual activity [39]: 100%
- residual activity [40]: 100%
- residual activity [41]: 100%
- residual activity [42]: 95%
- residual activity [43]: 100%
- inhibition [44]: 1.94%
